Measurements reported in patent US10329317B2, “Quinoline derivative for use in the treatment and prevention of viral infections” (ABIVAX, priority 2015, dated 2019).

Key:
[1] = target: T1, CBC complex (CBP20 and CBP80) (Homo sapiens, UniProt P52298+Q09161); test: UV-induced covalent bridging of purified recombinant CBP20 and CBP80 (SDS-PAGE / Western blot); assay type: binding; conditions: purified recombinant CBP20 and CBP80, UV light, resolved by SDS-PAGE
T1 construct: made in house
T1 sequence (Q09161 20-790 limits assumed): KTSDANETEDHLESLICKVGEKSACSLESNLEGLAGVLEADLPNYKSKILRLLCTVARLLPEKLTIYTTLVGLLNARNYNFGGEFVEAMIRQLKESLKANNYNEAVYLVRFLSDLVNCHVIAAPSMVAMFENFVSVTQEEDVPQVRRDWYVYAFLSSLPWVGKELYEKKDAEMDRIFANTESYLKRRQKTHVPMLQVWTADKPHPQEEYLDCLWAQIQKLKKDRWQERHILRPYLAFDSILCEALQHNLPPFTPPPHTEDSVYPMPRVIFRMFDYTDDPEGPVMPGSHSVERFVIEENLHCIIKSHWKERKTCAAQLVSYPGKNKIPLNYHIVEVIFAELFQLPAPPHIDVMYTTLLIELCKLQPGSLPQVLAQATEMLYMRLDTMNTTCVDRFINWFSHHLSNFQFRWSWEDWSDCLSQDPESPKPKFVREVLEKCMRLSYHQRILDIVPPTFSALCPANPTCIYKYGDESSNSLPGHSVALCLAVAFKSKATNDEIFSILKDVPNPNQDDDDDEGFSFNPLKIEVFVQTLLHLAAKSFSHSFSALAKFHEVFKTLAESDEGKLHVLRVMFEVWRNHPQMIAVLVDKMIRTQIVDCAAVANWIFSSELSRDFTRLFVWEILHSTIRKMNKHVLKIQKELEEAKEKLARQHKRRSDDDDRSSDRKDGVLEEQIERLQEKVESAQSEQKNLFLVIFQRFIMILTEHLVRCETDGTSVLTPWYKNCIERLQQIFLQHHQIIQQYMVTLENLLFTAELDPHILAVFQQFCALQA
T1 sequence (P52298 1-156): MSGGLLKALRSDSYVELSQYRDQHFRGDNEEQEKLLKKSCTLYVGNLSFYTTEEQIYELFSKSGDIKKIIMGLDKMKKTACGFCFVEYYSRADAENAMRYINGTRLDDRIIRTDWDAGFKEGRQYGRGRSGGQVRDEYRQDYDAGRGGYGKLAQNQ
Protocol: FIG. 1A. Compounds 1 and 2 interact with the CBC complex. Purified recombinant CBP20 and CBP80 proteins were incubated with increasing concentrations of Compound 2 (left panel) or Compound 1 (right panel, Gluc) and treated during 30 min (Compound 1) or 15 min (Compound 2) with UV light. […] Left panel: from left to right, incubation with 0.1 (lane 1), 1 (lane 2), 10 (lane 3) and 50 μM (lane 4) […]. Right panel: from left to right, incubation with 1 (lane 1), 10 (lane 2), 50 (lane 3), 100 μM (lane 4) and 200 μM (lane 5) of Compound 1.
The recombinant CBC complex, comprising CBP20 and CBP80, is prepared according to the protocol which has been described in Worch, R. et al. (Specificity of recognition of mRNA 5′ cap by human nuclear cap-binding complex. RNA 11, 1355-1363 (2005)).
Compound 1 can make covalent binding with purified CBC complex after […] irradiation with UV light at 365 nm.
The same results were obtained with the glucuronidated Compound 1, the more soluble derivative of Compound 2 that is produced as metabolite using human hepatocytes.

[2] = target: T2, Recombinant human CBC with capped RNA substrate (Homo sapiens, UniProt P52298+Q09161); test: Gel-mobility shift assay of CBC binding to capped RNA; conditions: Compound 1 5-100 μM, Compound 2 5-50 μM, m7GpppG 12 mM
T2 construct: made in house
T2 sequence (Q09161 20-790 limits assumed): T1 sequence (Q09161 20-790 limits assumed)
T2 sequence (P52298 1-156): T1 sequence (P52298 1-156)
Protocol: FIG. 1B. […] Recombinant human CBC was incubated with a capped RNA substrate and analyzed by native gel electrophoresis in order to resolve the different RNA and RNA-protein complexes: free RNA (lane 1), and CBC-RNA complexes (lanes 2-10) in the presence of 12 mM of m7GppG (lanes 10) or 5 μM, 10 μM or 50 μM of Compound 2 (lanes 2-5, respectively) and 5 μM, 10 μM, 50 μM or 100 μM of Compound 1 (lanes 6-9, respectively).
Recombinant human CBC was incubated with a capped RNA substrate in the presence of increasing concentrations of compound 1 or compound 2 or a m(7)GpppG cap analogue and analyzed by native gel electrophoresis in order to resolve the different RNA and RNA-protein complexes according to Mazza et al. (Large-scale induced fit recognition of an m(7)GpppG cap analogue by the human nuclear cap-binding complex. EMBO J. 21, 5548-5557 (2002).

For `FC(F)(F)Oc1ccc(Nc2ccc3cccc(Cl)c3n2)cc1` [Compound 2, 8-chloro-N-(4-(trifluoromethoxy)phenyl)quinolin-2-amine], the “covalent bridging between CBP20 and CBP80 after UV irradiation” value [1] was “dose-dependent covalent bridging” and the “competition of the complex between CBC and capped RNA” value [2] was “no competition”.
For `Cn1c[n+]([C@@H]2O[C@H](COP(=O)(O)OP(=O)([O-])OP(=O)(O)OC[C@H]3O[C@@H](n4cnc5c(=O)[nH]c(N)nc54)[C@H](O)[C@@H]3O)[C@@H](O)[C@H]2O)c2nc(N)[nH]c(=O)c21` [m^7GpppG, reference compound], the “competition of the complex between CBC and capped RNA” value [2] was “competed”.
